In ChEMBL document CHEMBL1208667, “Permanent positive charge strongly influences DNA/RNA binding and antiproliferative activity of urea-phenanthridinium conjugates” (Eur J Med Chem, 2010):
Activity calls are given as the source filed them. No cut-off for these calls is given here.

How the values were obtained:
Nucleic Acid [1] = test: Binding affinity to […] assessed as melting temperature at compound to DNA molar ratio of 0.2 at pH 7 by thermal denaturation assay; assay type: nucleic-acid assay
Calf thymus DNA [2] = test: Binding affinity to calf thymus DNA assessed as melting temperature at compound to DNA molar ratio of 0.2 at pH 5 by thermal denaturation assay; assay type: nucleic-acid assay; details: Bos taurus
Calf thymus DNA [3] = test: Binding affinity to calf thymus DNA in citric acid buffer at pH 5 by fluorescence titration assay; assay type: nucleic-acid assay; details: Bos taurus
Calf thymus DNA [4] = test: Binding affinity to calf thymus DNA assessed as change in melting temperature at compound to DNA molar ratio of 0.2 at pH 5 by thermal denaturation assay; assay type: nucleic-acid assay; details: Bos taurus
Nucleic Acid [5] = test: Binding affinity to poly dA-poly dT RNA in citric acid buffer at pH 5 by fluorescence titration assay relative to control; assay type: nucleic-acid assay
Calf thymus DNA [6] = test: Binding affinity to calf thymus DNA at compound to DNA molar ratio of 0.1 to 0.5 at pH 5 by circular dichroism; assay type: nucleic-acid assay; details: Bos taurus
Calf thymus DNA [7] = test: Binding affinity to calf thymus DNA assessed as change in melting temperature at compound to DNA molar ratio of 0.3 at pH 7 by thermal denaturation assay; assay type: nucleic-acid assay; details: Bos taurus
Nucleic Acid [8] = test: Binding affinity to poly A-poly U RNA in sodium cacodylate buffer at pH 7 by fluorescence titration assay relative to control; assay type: nucleic-acid assay
HT-29 = test: Cytotoxicity against human HT-29 cells at 0.1 to 100 uM after 72 hrs by MTT assay; assay type: functional, cell-based
Nucleic Acid [9] = test: Binding affinity to poly G-poly C RNA in sodium cacodylate buffer at pH 7 by fluorescence titration assay relative to control; assay type: nucleic-acid assay
Nucleic Acid [10] = test: Binding affinity to UMP in sodium cacodylate buffer at pH 7 by fluorescence titration assay relative to control; assay type: nucleic-acid assay
Caco-2 [11] = test: Cytotoxicity against human Caco-2 cells at 0.1 to 100 uM after 72 hrs by MTT assay; assay type: functional, cell-based
Caco-2 [12] = test: Cytotoxicity against human Caco-2 cells at 100 uM after 72 hrs by MTT assay; assay type: functional, cell-based
Nucleic Acid [13] = test: Binding affinity to poly dA-poly dT RNA in citric acid buffer at pH 5 by fluorescence titration assay; assay type: nucleic-acid assay
Calf thymus DNA [14] = test: Binding affinity to calf thymus DNA assessed as melting temperature at compound to DNA molar ratio of 0.2 at pH 7 by thermal denaturation assay; assay type: nucleic-acid assay; details: Bos taurus
Nucleic Acid [15] = test: Binding affinity to poly A-poly U RNA assessed as biphasic transitions of change in melting temperature at compound to DNA molar ratio of 0.2 at pH 5 by thermal denaturation assay; assay type: nucleic-acid assay
Calf thymus DNA [16] = test: Binding affinity to calf thymus DNA in sodium cacodylate buffer at pH 7 by fluorescence titration assay; assay type: nucleic-acid assay; details: Bos taurus
Nucleic Acid [17] = test: Binding affinity to AMP in sodium cacodylate buffer at pH 7 by fluorescence titration assay relative to control; assay type: nucleic-acid assay
Nucleic Acid [18] = test: Binding affinity to […] assessed as melting temperature at compound to DNA molar ratio of 0.2 at pH 5 by thermal denaturation assay; assay type: nucleic-acid assay
Calf thymus DNA [19] = test: Binding affinity to calf thymus DNA assessed as melting temperature at compound to DNA molar ratio of 0.3 at pH 7 by thermal denaturation assay; assay type: nucleic-acid assay; details: Bos taurus
Nucleic Acid [20] = test: Binding affinity to AMP in citric acid buffer at pH 5 by fluorescence titration assay relative to control; assay type: nucleic-acid assay
MIA PaCa-2 [21] = test: Cytotoxicity against human MIAPaCa2 cells at 0.1 to 100 uM after 72 hrs by MTT assay; assay type: functional, cell-based
Nucleic Acid [22] = test: Binding affinity to […] assessed as melting temperature at compound to DNA molar ratio of 0.3 at pH 7 by thermal denaturation assay; assay type: nucleic-acid assay
Nucleic Acid [23] = test: Binding affinity to poly dA-poly dT RNA in sodium cacodylate buffer at pH 7 by fluorescence titration assay; assay type: nucleic-acid assay
Calf thymus DNA [24] = test: Binding affinity to calf thymus DNA assessed as change in melting temperature at compound to DNA molar ratio of 0.2 at pH 7 by thermal denaturation assay; assay type: nucleic-acid assay; details: Bos taurus
Nucleic Acid [25] = test: Binding affinity to […] assessed as change in melting temperature at compound to DNA molar ratio of 0.2 at pH 7 by thermal denaturation assay; assay type: nucleic-acid assay
HEp-2 = test: Cytotoxicity against human Hep2 cells at 0.1 to 100 uM after 72 hrs by MTT assay; assay type: functional, cell-based
Calf thymus DNA [26] = test: Binding affinity to calf thymus DNA assessed as melting temperature at compound to DNA molar ratio of 0.3 at pH 5 by thermal denaturation assay; assay type: nucleic-acid assay; details: Bos taurus
Nucleic Acid [27] = test: Binding affinity to poly G-poly C RNA in citric acid buffer at pH 5 by fluorescence titration assay; assay type: nucleic-acid assay
Calf thymus DNA [28] = test: Binding affinity to calf thymus DNA in sodium cacodylate buffer at pH 7 by fluorescence titration assay relative to control; assay type: nucleic-acid assay; details: Bos taurus
Nucleic Acid [29] = test: Binding affinity to […] assessed as change in melting temperature at compound to DNA molar ratio of 0.3 at pH 7 by thermal denaturation assay; assay type: nucleic-acid assay
Nucleic Acid [30] = test: Binding affinity to poly A-poly U RNA at compound to DNA molar ratio of 0.1 to 0.5 at pH 7 by circular dichroism; assay type: nucleic-acid assay
Nucleic Acid [31] = test: Binding affinity to poly A-poly U RNA assessed as melting temperature at compound to DNA molar ratio of 0.2 at pH 7 by thermal denaturation assay; assay type: nucleic-acid assay
Nucleic Acid [32] = test: Binding affinity to poly A-poly U RNA assessed as melting temperature at compound to DNA molar ratio of 0.3 at pH 7 by thermal denaturation assay; assay type: nucleic-acid assay
Nucleic Acid [33] = test: Binding affinity to poly G-poly C RNA in citric acid buffer at pH 5 by fluorescence titration assay relative to control; assay type: nucleic-acid assay
Nucleic Acid [34] = test: Binding affinity to […] assessed as change in melting temperature at compound to DNA molar ratio of 0.2 at pH 5 by thermal denaturation assay; assay type: nucleic-acid assay
Nucleic Acid [35] = test: Binding affinity to poly A-poly U RNA in citric acid buffer at pH 5 by fluorescence titration assay relative to control; assay type: nucleic-acid assay
Nucleic Acid [36] = test: Binding affinity to poly dA-poly dT RNA in sodium cacodylate buffer at pH 7 by fluorescence titration assay relative to control; assay type: nucleic-acid assay
MIA PaCa-2 [37] = test: Cytotoxicity against human MIAPaCa2 cells at 100 uM after 72 hrs by MTT assay; assay type: functional; details: MIA PaCa-2, 72 h
Nucleic Acid [38] = test: Binding affinity to CMP in sodium cacodylate buffer at pH 7 by fluorescence titration assay relative to control; assay type: nucleic-acid assay
Nucleic Acid [39] = test: Binding affinity to poly A-poly U RNA assessed as melting temperature at compound to DNA molar ratio of 0.2 at pH 5 by thermal denaturation assay; assay type: nucleic-acid assay
[40] = Solubility of the compound in water; assay type: physicochemical; details: buffer
Nucleic Acid [41] = test: Binding affinity to CMP in citric acid buffer at pH 5 by fluorescence titration assay relative to control; assay type: nucleic-acid assay
Nucleic Acid [42] = test: Binding affinity to GMP in sodium cacodylate buffer at pH 7 by fluorescence titration assay relative to control; assay type: nucleic-acid assay
Nucleic Acid [43] = test: Binding affinity to poly A-poly U RNA assessed as change in melting temperature at compound to DNA molar ratio of 0.3 at pH 7 by thermal denaturation assay; assay type: nucleic-acid assay

## Cc1c2cc(NC(=O)NCCCCCCCCCNC(=O)Nc3ccc4c(c3)c(C)[n+](C)c3ccccc43)ccc2c2ccccc2[n+]1C.O=S(=O)([O-])O.O=S(=O)([O-])O
Nucleic Acid [1]
  Tm: 69.1 °C
Calf thymus DNA [2]
  Tm: 73.8 °C
Calf thymus DNA [3]
  log Ks: 5.6
Calf thymus DNA [4]
  ΔTm: 13.2 °C
Nucleic Acid [5]
  RFU: 2.3
Calf thymus DNA [6]
  Activity: Active
Calf thymus DNA [7]
  ΔTm: 5.8 °C
Nucleic Acid [8]
  RFU: 4
HT-29
  Activity: inactive
Nucleic Acid [9]
  RFU: 0.5
Nucleic Acid [10]
  RFU: 1.02
Caco-2 [11]
  Activity: inactive
Caco-2 [12]
  Activity: inactive
Nucleic Acid [13]
  log Ks: 6.6
Calf thymus DNA [14]
  Tm: 84.2 °C
Nucleic Acid [15]
  ΔTm: -1.3 °C
Calf thymus DNA [16]
  log Ks: 5.9
Nucleic Acid [17]
  RFU: -55
Nucleic Acid [18]
  Tm: 57.5 °C
Calf thymus DNA [19]
  Tm: 85.1 °C
Nucleic Acid [20]
  RFU: -38.5
MIA PaCa-2 [21]
  Activity: inactive
Nucleic Acid [22]
  Tm: 70.4 °C
Nucleic Acid [23]
  log Ks: 5.6
Calf thymus DNA [24]
  ΔTm: 4.9 °C
Nucleic Acid [25]
  ΔTm: 4.2 °C
HEp-2
  Activity: inactive
Calf thymus DNA [26]
  Tm: 74 °C
Nucleic Acid [27]
  log Ks: 5.2
Calf thymus DNA [28]
  RFU: 0.7
Nucleic Acid [29]
  ΔTm: 5.5 °C
Nucleic Acid [30]
  Activity: Active
Nucleic Acid [31]
  Tm: 53.8 °C
Nucleic Acid [32]
  Tm: 53.6 °C
Nucleic Acid [33]
  RFU: 0
Nucleic Acid [34]
  ΔTm: 7.5 °C
Nucleic Acid [35]
  RFU: 8.1
Nucleic Acid [36]
  RFU: 3.9
MIA PaCa-2 [37]
  inhibition at 100 µM: 26.8%
Nucleic Acid [38]
  RFU: -9.4
Nucleic Acid [39]
  Tm: 82.9 °C
[40]
  solubility: 1.06 mM
Nucleic Acid [41]
  RFU: -6.4
Nucleic Acid [42]
  RFU: -16.7
Nucleic Acid [43]
  ΔTm: 2.1 °C
